One experiment has as its system T1, ATII-ABL.
T1 construct: gene bla
In words: chromogenic nitrocefin hydrolysis at […] nm. In kind it is biochemical, uncultured bacterium. The conditions noted are these: 100 nM enzyme; Michaelis-Menten fit.

The subject of another experiment is T2, ATII-APH(3′).
T2 construct: full-length ORF (804 nt query), codon-optimised synthetic gene, N-terminal 10x-His tag (pET-16b), E. coli BL21(DE3), Talon-purified
Kind of experiment: pyruvate kinase/lactate dehydrogenase coupled assay, NADH oxidation at […] nm. In kind it is biochemical. The conditions noted are these: phosphorylation of aminoglycoside; Michaelis-Menten fit.

SMILES strings stand for the structures.

Regarding `O=C(Cc1cccs1)N[C@@H]1C(=O)N2C(C(=O)O)=C(/C=C/c3ccc([N+](=O)[O-])cc3[N+](=O)[O-])CS[C@H]12` [Nitrocefin], in the experiment on ATII-ABL, the Km was 5.07 ± 1.65 µM.

As for `NCC[C@H](O)C(=O)N[C@@H]1C[C@H](N)[C@@H](O[C@H]2O[C@H](CN)[C@@H](O)[C@H](O)[C@H]2O)[C@H](O)[C@H]1O[C@H]1O[C@H](CO)[C@@H](O)[C@H](N)[C@H]1O` [Amikacin], the Km in the experiment with ATII-APH(3′) came to 5500 ± 1650 µM.

`NC[C@H]1O[C@H](O[C@H]2[C@H](O)[C@@H](O[C@H]3O[C@H](CO)[C@@H](O)[C@H](N)[C@H]3O)[C@H](N)C[C@@H]2N)[C@H](O)[C@@H](O)[C@@H]1O` [Kanamycin]: the Michaelis-Menten constant (Km) in the experiment on ATII-APH(3′) turned out to be 4.7 ± 0.96 µM.

For orientation: Km means the substrate concentration at which the rate is half of its maximum.

The values are drawn from publication PMC5270753, “Novel thermostable antibiotic resistance enzymes from the Atlantis II Deep Red Sea brine pool” (Microbial Biotechnology, 2016).
